The supplement of paper PMC10307832

Key:
Assay in all cases: relative viability (nuclei count vs DMSO), 5 days (fraction); higher = more cells survive
[1] = compound: CC1CC(=O)N(C2=CN=C(N=C2N1C3CCCC3)NC4=C(C=C(C=C4)C(=O)NC5CCN(CC5)C)OC)C [NPK76-II-72-1] + CC(=O)Nc1cccc(-n2c(=O)n(C3CC3)c(=O)c3c(Nc4ccc(I)cc4F)n(C)c(=O)c(C)c32)c1 [Trametinib] (partner 0.02 µM)
Outline: (§1)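 Lung cancer cell lines in 1536-well plates were dosed by pin tool the day after seeding, either with one drug alone or with a fixed anchor-drug dose plus five library-drug doses (not always all listed) in √10 steps. After 5 days, cells were fixed and their nuclei stained in one step (final 0.05% Triton X-100, 1% formaldehyde, 1 ug/ml Hoechst), then counted on 4× images. Relative viability is the nuclei count in treated wells divided by that in vehicle wells. Values are medians of duplicate plates.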

BI-2536 = compound: CC[C@@H]1C(=O)N(C)c2cnc(Nc3ccc(C(=O)NC4CCN(C)CC4)cc3OC)nc2N1C1CCCC1 [BI-2536]
Outline: (§2)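 In 1536-well plates, lung cancer cell lines rested overnight at 37 °C before five library-drug doses (not always all listed), √10 apart, were pinned onto vehicle-anchored plates. Nuclei were counted with MetaXpress from 4× Hoechst images taken after 5 days without medium change. Viability compares treated-well with vehicle-well nuclei as a median over plates, and plates needed control CV below 25% plus at least one doubling to pass.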

NPK76-II-72-1 = compound: CC1CC(=O)N(C2=CN=C(N=C2N1C3CCCC3)NC4=C(C=C(C=C4)C(=O)NC5CCN(CC5)C)OC)C [NPK76-II-72-1]
Outline: as §2

BI-2536 + Navitoclax = compound: CC[C@@H]1C(=O)N(C)c2cnc(Nc3ccc(C(=O)NC4CCN(C)CC4)cc3OC)nc2N1C1CCCC1 [BI-2536] + CC1(C)CCC(c2ccc(Cl)cc2)=C(CN2CCN(c3ccc(C(=O)NS(=O)(=O)c4ccc(N[C@H](CCN5CCOCC5)CSc5ccccc5)c(S(=O)(=O)C(F)(F)F)c4)cc3)CC2)C1 [Navitoclax] (partner 0.5 µM)
Outline: as §1

| Cell Line | relative viability ([1]; first compound 0.01 µM) | relative viability ([1]; first compound 0.03162 µM) | relative viability ([1]; first compound 0.1 µM) | relative viability ([1]; first compound 0.3162 µM) | relative viability ([1]; first compound 1 µM) | relative viability (BI-2536; 0.01 µM) | relative viability (BI-2536; 0.03162 µM) | relative viability (BI-2536; 0.1 µM) | relative viability (BI-2536; 0.3162 µM) | relative viability (BI-2536; 1 µM) | relative viability (NPK76-II-72-1; 0.01 µM) | relative viability (NPK76-II-72-1; 0.03162 µM) | relative viability (NPK76-II-72-1; 0.1 µM) | relative viability (NPK76-II-72-1; 0.3162 µM) | relative viability (NPK76-II-72-1; 1 µM) | relative viability (BI-2536 + Navitoclax; first compound 0.01 µM) | relative viability (BI-2536 + Navitoclax; first compound 0.03162 µM) | relative viability (BI-2536 + Navitoclax; first compound 0.1 µM) | relative viability (BI-2536 + Navitoclax; first compound 0.3162 µM) | relative viability (BI-2536 + Navitoclax; first compound 1 µM) |
| --- | --- | --- | --- | --- | --- | --- | --- | --- | --- | --- | --- | --- | --- | --- | --- | --- | --- | --- | --- | --- |
| NCI-H2342 | 0.871 | 0.655 | 0.909 | 0.809 | 0.461 | 0.818 | 0.909 | 0.865 | 0.418 | 0.393 | 1.02 | 1.08 | 0.954 | 0.823 | 1.04 | – | – | – | – | – |
| SK-MES-1 | 0.543 | 0.583 | 0.489 | 0.593 | 0.555 | 1.07 | 0.975 | 0.614 | 0.196 | 0.179 | 0.986 | 1.03 | 0.989 | 1.01 | 1.09 | 1.21 | 1.37 | 1.14 | 0.126 | 0.139 |
| HCC-366 | 0.336 | 0.403 | 0.372 | 0.308 | 0.424 | 1.04 | 1.06 | 0.677 | 0.0316 | 0.0344 | 0.994 | 0.999 | 1 | 1.09 | 0.97 | 1.1 | 1.1 | 0.809 | 0.0109 | 0.0154 |
| 201T | 0.716 | 0.701 | 0.709 | 0.689 | 0.716 | 0.996 | 0.987 | 0.977 | 0.391 | 0.255 | 0.973 | 1 | 0.958 | 0.988 | 1.03 | 1.18 | 1.16 | 1.21 | 0.939 | 0.33 |
| HCC-827 | 0.557 | 0.491 | 0.556 | 0.633 | 0.565 | 1.05 | 1.03 | 0.927 | 0.441 | 0.284 | 1.04 | 1.04 | 1.07 | 1.03 | 1.06 | 1.06 | 1 | 0.99 | 0.23 | 0.186 |
| NCI-H647 | 0.443 | 0.436 | 0.418 | 0.527 | 0.54 | 0.925 | 0.874 | 0.161 | 0.0642 | 0.0923 | 0.886 | 0.971 | 1.01 | 1.03 | 1.06 | 1.05 | 0.883 | 0.378 | 0.0407 | 0.0778 |
| NCI-H2023 | 0.584 | 0.645 | 0.677 | 0.556 | 0.512 | 0.954 | 0.909 | 0.266 | 0.0935 | 0.11 | 0.904 | 1.05 | 1.07 | 0.941 | 0.96 | 0.984 | 0.92 | 0.723 | 0.0972 | 0.0716 |
| NCI-H520 | 0.646 | 0.687 | 0.676 | 0.688 | 0.769 | 0.902 | 0.737 | 0.61 | 0.238 | 0.225 | 0.869 | 1.03 | 0.991 | 1.03 | 0.947 | 1.02 | 1.03 | 0.366 | 0.222 | 0.2 |
| RERF-LC-KJ | 0.874 | 0.854 | 0.838 | 0.809 | 0.946 | 0.987 | 1.01 | 0.765 | 0.211 | 0.237 | 0.959 | 1.01 | 0.986 | 0.889 | 1.06 | 0.861 | 0.827 | 0.727 | 0.186 | 0.263 |
| A-427 | 0.732 | 0.743 | 0.812 | 0.691 | 0.812 | 0.996 | 0.961 | 0.589 | 0.137 | 0.151 | 0.943 | 1.07 | 0.984 | 0.929 | 0.977 | 0.961 | 0.979 | 0.941 | 0.284 | 0.165 |
| NCI-H441 | 0.396 | 0.507 | 0.429 | 0.497 | 0.54 | 0.874 | 0.503 | 0.281 | 0.191 | 0.224 | 1.04 | 1.12 | 1.03 | 0.914 | 1.04 | 0.705 | 0.449 | 0.152 | 0.152 | 0.178 |
| NCI-H1703 | – | – | – | – | – | 0.896 | 0.614 | 0.525 | 0.158 | 0.131 | 0.842 | 1.07 | 0.935 | 0.979 | 1.27 | 1.13 | 0.349 | 0.136 | 0.142 | 0.104 |
| NCI-H1792 | – | 0.469 | 0.478 | 0.378 | 0.506 | 1.03 | 0.851 | 0.416 | 0.168 | 0.114 | 0.874 | 0.895 | 0.906 | 0.857 | 1.04 | 0.624 | 0.589 | 0.559 | 0.171 | 0.0662 |
| Calu-6 | – | – | – | – | – | 1.02 | 0.861 | 0.51 | 0.117 | 0.111 | 0.988 | 1.05 | 1.03 | 0.954 | 0.996 | 0.825 | 0.397 | 0.106 | 0.0854 | 0.0728 |
